# Patent US11077169B2, “Soy-derived bioactive peptides for use in compositions and methods for wound healing, tissue engineering, and regenerative medicine” (Temple University-Of The Commonwealth System of Higher …, priority 2015, dated 2021)
# Tested on: HaCaT epithelial cells
# Assay: wound closure in HaCaT cells with ethanol extracts and estrogen receptor antagonist
# Type: cell-based, human
compound,measurement,setting,value
C[C@]12CC[C@@H]3c4ccc(O)cc4C[C@@H](CCCCCCCCC[S+]([O-])CCCC(F)(F)C(F)(F)F)[C@H]3[C@@H]1CC[C@@H]2O (some centres unmarked) [Fluvestrant],effect on WSsoy-induced wound closure,,did not affect
same,inhibition of SPI-induced wound closure,10 μM antagonist,significantly inhibited
